Source: patent US11021481B2, “Substituted isoindolin-1-ones and 2,3-dihydro-1h-pyrrolo[3,4-c]pyridin-1-ones as HPK1 antagonists” (Nimbus Saturn, Inc., priority 2019, dated 2021)
Structures can show the parent of a compound that is named as a salt.

Target: HPK1 (Homo sapiens (Human), UniProt Q92918)
Experiment: HPK1 biochemical enzyme assay (microfluidic mobility shift assay)
Details: 1.5 nM HPK1, ATP 1 mM final, 30 min preincubation, 60 min at RT, Caliper EZ Reader; read-out: HPK1 1000UMATP caliper IC50
Outline: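 Ten-point compound titrations (top 3 μM final) preincubated 30 min with HPK1 and substrate, then reaction started with 1 mM ATP and 1 μM substrate, 5 mM MgCl2. After 60 min at RT, reaction terminated and product measured by microfluidic mobility shift.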

Chain of HPK1 (Q92918 whole entry): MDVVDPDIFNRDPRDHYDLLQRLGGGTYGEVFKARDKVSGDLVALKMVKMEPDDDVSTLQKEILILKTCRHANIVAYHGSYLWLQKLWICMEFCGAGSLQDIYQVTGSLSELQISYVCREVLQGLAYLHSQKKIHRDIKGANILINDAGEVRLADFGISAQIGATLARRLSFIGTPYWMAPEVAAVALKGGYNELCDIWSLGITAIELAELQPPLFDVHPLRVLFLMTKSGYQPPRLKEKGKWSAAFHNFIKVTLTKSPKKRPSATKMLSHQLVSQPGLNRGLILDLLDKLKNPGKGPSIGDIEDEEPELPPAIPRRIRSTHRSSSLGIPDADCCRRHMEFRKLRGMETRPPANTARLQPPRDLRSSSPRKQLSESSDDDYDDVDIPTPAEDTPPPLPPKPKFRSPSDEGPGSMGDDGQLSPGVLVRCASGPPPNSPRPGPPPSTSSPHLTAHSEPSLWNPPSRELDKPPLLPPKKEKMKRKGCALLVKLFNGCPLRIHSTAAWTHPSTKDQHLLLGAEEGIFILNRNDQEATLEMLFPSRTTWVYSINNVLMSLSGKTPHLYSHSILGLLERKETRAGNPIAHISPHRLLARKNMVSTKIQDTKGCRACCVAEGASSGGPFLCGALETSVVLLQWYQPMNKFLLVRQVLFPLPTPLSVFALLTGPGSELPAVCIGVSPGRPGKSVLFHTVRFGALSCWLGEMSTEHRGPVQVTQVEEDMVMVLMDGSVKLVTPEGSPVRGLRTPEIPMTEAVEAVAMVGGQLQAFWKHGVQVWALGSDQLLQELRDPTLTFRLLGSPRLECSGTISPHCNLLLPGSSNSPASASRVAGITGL

| IC50 | Compound |
| --- | --- |
| < 100 nM | Cn1ccc2c(-c3ncc(Nc4ccc(N5CC[C@@H](F)[C@H](O)C5)cn4)c4c3CNC4=O)ccnc21 [I-416, 7-((5-((3R,4R)-4-fluoro-3-hydroxy-piperidin-1-yl)pyridin-2-yl)amino)-4-(1-methyl-1H-pyrrolo[2,3-b]pyridin-4-yl)-2,3-dihydro-1H-pyrrolo[3,4-c]pyridin-1-one] |
| < 100 nM | CN1CCN(c2ccc(Nc3ccc(-c4cnc5cccnn45)c4c3C(=O)NC4)nc2)CC1 [I-59, 4-imidazo[1,2-b]pyridazin-3-yl-7-[[5-(4-methylpiperazin-1-yl)-2-pyridyl]amino] isoindolin-1-one] |
| < 100 nM | Cc1ccn2c(-c3ccc(Nc4ccc(CN5CCOCC5)cn4)c4c3CNC4=O)cnc2c1F [I-468, 4-(8-fluoro-7-methyl-imidazo[1,2-a]pyridin-3-yl)-7-[[5-(morpholino-methyl)-2-pyridyl]amino] isoindolin-1-one] |
| < 100 nM | CN(C[C@H]1CN(c2ccc(Nc3ccc(-c4cnc5cc(F)ccn45)c4c3C(=O)NC4)nc2)CCO1)C1CC1 [I-499, 7-[[5-[(2S)-2-[[cyclopropyl (methyl)amino]methyl]morpholin-4-yl]-2-pyridyl]amino] 4-(7-fluoroimidazo [1,2-a]pyridin-3-yl)isoindolin-1-one] |
| < 100 nM | C[C@H]1CN(c2ccc(Nc3ccc(-c4cnc5cc(F)ccn45)c4c3C(=O)NC4)nc2CN(C)C)CCO1 [I-529, 7-[[6-[(dimethylamino)-methyl]-5-[(2S)-2-methylmorpho-lin-4-yl]-2-pyridyl]amino]-4-(7-fluoroimidazo [1,2-a]pyridin-3-yl)isoindolin-1-one Bis formic acid salt] |
| < 100 nM | CC(C)(O)[C@H]1CN(c2ccc(Nc3cnc(-c4cnc5c(F)cccn45)c4c3C(=O)NC4)nc2)CCO1 [I-458, 4-(8-fluoroimidazo [1,2-a]pyridin-3-yl)-7-[[5-[(2R)-2-(1-hydroxy-1-methyl-ethyl)morpholin-4-yl]-2-pyridyl]amino]-2,3-dihydropyrrolo [3,4-c]pyridin-l-one] |
| < 100 nM | O=C1NCc2c(-c3cnc4cc(F)ccn34)ccc(Nc3ccc(N4CCC[C@]5(CNCCO5)C4)cn3)c21 [I-508, (S)-7-((5-(1-oxa-4.8-diazaspiro[5.5]undecan-8-yl)pyridin-2-yl)amino)-4-(7-fluoroimidazo [1,2-a]pyridin-3-yl)isoindolin-1-one] |
| < 100 nM | C[C@@H](c1ccc(Nc2ccc(-c3cnc4cc(F)ccn34)c3c2C(=O)NC3)nc1)N1CCC[C@H](O)C1 (stereo in doubt) [I-513, 4-(7-f1uoroimidazo [1,2-a]pyridin-3-yl)-7-((5-((S)-1-((S)-3-hydroxypiperidin-1-yl)ethyl)pyridin-2-yl)amino)isoin-dolin-1-one] |
| < 100 nM | CN(C)C1CN(c2nc(Nc3ccc(-c4cnc5cc(F)ccn45)c4c3C(=O)NC4)ccc2C2CCOC2)C1 (stereo in doubt) [I-787, (R)-7-((6-(3-(dimethylami-no)azetidin-1-yl)-5-(tetrahydrofuran-3-yl)pyridin-2-yl)amino)-4-(7-fluoroimidazo [1,2-a]pyridin-3-yl)isoindolin-1-one] |
| < 100 nM | 4-(1-methyl- 1H-indol-4- yl)-7-((5- (piperazin-1- yl)pyridin-2- yl)amino)-2,3- dihydro-1H- pyrrolo[3,4- c]pyridin-1-one [I-266] |
| < 100 nM | O=C1NCc2c(-c3cnc4c(F)cccn34)ncc(Nc3ccc(N4CC[C@H](F)[C@@H](O)C4)cn3)c21 [I-653, 7-((5-((3S.4S)-4-fluoro-3-liydroxy-piperidin-1-yl)pyridin-2-yl)amino)-4-(8-fluoroimidazo [1,2-a]pyridin-3-yl)-2,3-dihydro-1H-pyrrolo[3,4-c]pyridin-1-one] |
| > 1000 nM | Cn1ccc2c(-c3ccc(-n4ccc(N5CCC(O)CC5)n4)c4c3CNC4=O)ccnc21 [I-308, 7-(3-(4-hydroxypiper-idin-1-yl)-1H-pyrazol-1-yl)-4-(1-methyl-1H-pyrrolo[2,3-b)pyridin-4-yl)isoindolin-1-one] |
| < 100 nM | O=C1NCc2c(-c3cnc4cc(F)ccn34)ccc(Nc3ccc(N4CCC[C@H](O)C4)cn3)c21 [I-175, 4-(7-fluoroimidazo [1,2-a]pyridin-3-yl)-7-[[5-[(3S)-3-hydroxy-1-piperidyl]-2-pyridyl]amino] isoindolin-1-one] |
| < 100 nM | O=C1NCc2c(-c3ccnc4c3ccn4C(F)F)ncc(Nc3ccc(N4CCC(O)CC4)cn3)c21 [I-200, 4-[1-(difluorometh-yl)pyrrolo[2,3-b]pyridin-4-yl]-7-[[5-(4-hydroxy-1-piperidyl)-2-pyridyl]-amino]-2,3-dihxdropyrrolo [3,4-c]pyridin-1-one] |
| < 100 nM | O=C1NCc2c(-c3cnc4cc(F)ccn34)ccc(Nc3ccc(N4CCC[C@H](N5CCOCC5)C4)cn3)c21 [I-501, (S)-4-(7-fluoroimidazo [1,2-a]pyridin-3-yl)-7-((5-(3-morpholinopip-eridin-1-yl)pyridin-2-yl)amino)isoin-dolin-1-one] |
| < 100 nM | CN1CCc2cc(Nc3ccc(-c4ccnc5c4ccn5C)c4c3C(=O)NC4)nn2CC1=O [I-294, 6-methyl-2-((7-(1-methyl-1H-pyrrolo[2,3-b]pyridin-4-yl)-3-oxoisoindolin-4-yl)amino)-5.6-dihydro-4H-pyrazolo[1,5-d][l,4]diaze-pin-7(8H)-one] |

| IC50 | Compound |
| --- | --- |
| < 100 nM | O=C1NCc2c(-c3cnn4cc(F)ccc34)ccc(Nc3ccc(N4CCC(O)CC4)cn3)c21 [I-465, 4-(6-fluoropyrazolo [1,5-a]pyridin-3-yl)-7-[[5-(4-hydroxy-1-piperidyl)-2-pyridyl]amino] isoindolin-1-one] |
| < 100 nM | CN(C)Cc1nc(Nc2ccc(-c3cnc4cc(F)ccn34)c3c2C(=O)NC3)ccc1[C@@H]1CCCO1 [I-560, (S)-7-((6-((dimethylamino)-methyl)-5-(tetrahydrofuran-2-yl)pyridin-2-yl)amino)-4-(7-fluoroimidazo [1,2-a]pyridin-3-yl)isoindolin-1-one] |
| < 100 nM | O=C1NCc2c(-c3cnc4cc(F)ccn34)ccc(Nc3ccc(N4CCC[C@](O)(CN5CCOCC5)C4)cn3)c21 [I-657, (S)-4-(7-fluoroimidazo [1,2-a]pyridin-3-yl)-7-((5-(3-hydroxy-3-(morpholinomethyl)piperidin-1-yl)pyridin-2-yl)amino)isoin-dolin-1-one] |
| < 100 nM | O=C1NCc2c(-c3cnc4cc(F)ccn34)ccc(Nc3ccc(N4CCC(CN5CCOCC5)CC4)cn3)c21 [I-428, 4-(7-fluoroimidazo [1,2-a]pyridin-3-yl)-7-((5-(4-(morpholinomethyl)piperidin-1-yl)pyridin-2-yl)amino)isoin-dolin-1-one] |
| < 100 nM | Cc1ccn2c(-c3ccc(Nc4ccc(N5CCOC(CN(C)C)C5)cn4)c4c3CNC4=O)cnc2c1F (stereo in doubt) [I-613, (S)-7-((5-(2-((dimethylamino)-methyl)mor-pholino)pyridin-2-yl)amino)-4-(8-fluoro-7-methylimidazo [1,2-a]pyridin-3-yl)isoindolin-1-one] |
| < 100 nM | CO[C@H]1CCN(Cc2nc(Nc3ccc(-c4cnc5cc(F)ccn45)c4c3C(=O)NC4)ccc2[C@@H]2CCOC2)C1 [I-790, 4-(7-fluoroimidazo [1,2-a]pyridin-3-yl)-7-((6-(((S)-3-methoxypyrrol-idin-1-yl)methyl)-5-((S)-tetrahydiofuran-3-yl)pyridin-2-yl)amino)isoin-dolin-1-one] |
| < 100 nM | O=C1NCc2c(-c3cnc4cc(F)ccn34)ccc(Nc3ccc(N4CCCC(N5CCOCC5)C4)cn3)c21 (stereo not shown) [I-476, Formic acid salt 4-(7-fluoroimidazo [1,2-a]pyridin-3-yl)-7-[[5-(3-morpholino-1-piperidyl)-2-pyridyl]amino] isoindolin-1-one] |
| < 100 nM | CN1CCN(c2ccc(Nc3cnc(-c4cccc5c4ccn5C)c4c3C(=O)NC4)nc2)CC1 [I-251, 4-(1-methyl-1H-indol-4-yl)-7-((5-(4-methylpiperazin-1-yl)pyridin-2-yl)amino)-2,3-dihydro-1H-pyrrolo[3,4-c]pyridin-1-one] |
| < 100 nM | CN1CCN(CC2(O)CCCN(c3ccc(Nc4ccc(-c5cnc6cc(F)ccn56)c5c4C(=O)NC5)nc3)C2)CC1 (stereo not shown) [I-388, 4-(7-fluoroimidazo [1,2-a]pyridin-3-yl)-7-((5-(3-hydroxy-3-((4-methylpiperazin-1-yl)methyl)piper-idin-1-yl)pyridin-2-yl)amino)isoin-dolin-1-one] |
| < 100 nM | CN(Cc1nc(Nc2ccc(-c3cnc4cc(F)ccn34)c3c2C(=O)NC3)ccc1[C@@H]1CCOC1)CC(F)F (single isomer, unassigned) [I-749] |
| < 100 nM | 7-[[5-[(2R)-2- (1-hydroxy-1- methylethyl)morpholin- 4-yl]-2- pyridyl]amino]- 4-imidazo[1,2- a]pyrazin-3-yl- isoindolin-1-one [I-486] |
| < 100 nM | COCC1(O)CCN(c2ccc(Nc3ccc(-c4cnc5cc(F)ccn45)c4c3C(=O)NC4)nc2CN(C)C)CC1 [I-782, 7-((6-((dimethylamino)-methyl)-5-(4-hydroxy-4-(methoxymeth-yl)piperidin-1-yl)pyridin-2-yl)amino)-4-(7-fluoroimidazo [1,2-a]pyridin-3-yl)isoindolin-1-one] |
| < 100 nM | CN(C)CC1(O)CCCN(c2ccc(Nc3ccc(-c4cnc5cc(F)ccn45)c4c3C(=O)NC4)nc2)C1 (stereo not shown) [I-385, 7-((5-(3-((dimethylamino)-methyl)-3-hydroxypiperidin-1-yl)pyridin-2-yl)amino)-4-(7-fluoroimidazo [1,2-a]pyridin-3-yl)isoindolin-1-one] |
| < 100 nM | CN1CCC[C@@H](c2cccc(Nc3cnc(-c4ccnc5c4ccn5C)c4c3C(=O)NC4)n2)C1 [I-420, (R]-4-(1-methyl-1H-pyrrolo[2,3-b]pyridin-4-yl)-7-((6-(1-methylpiperidin-3-yl)pyridin-2-yl)amino)-2.3-dihydro-1H-pyrrolo[3,4-c]pyridin-1-one] |
| < 100 nM | CN1CCN(c2ccc(Nc3ccc(-c4cnc5[nH]ccc5c4)c4c3C(=O)NC4)nc2)CC1 [I-45, 7-[[5-(4-methylpiperazin-1-yl)-2-pyridyl]amino]-4-(1H-pyrrolo[2,3-b]pyridin-5-yl)isoindolin-1-one] |
